Here are results for 2 compounds from patent US12552835B2, “Composition comprising Regentide-012 or Regentide-013 for improving skin condition” (NINEBIOPHARM CO., LTD., priority 2020, dated 2026).

The structures appear in SMILES notation. Where a SMILES comes first, the peptide text is derived from it. Bridges are numbered along the chain shown (N, C = ends).

Type in all cases: cell-based, human
Data set [1] relates to HaCaT cells. The data set can be described thus: Cytotoxicity evaluation (CCK8 cell viability) in epidermal keratinocytes. The settings on record: 5 μM or 10 μM, 48 hours, FBS-free medium. As to the method:
(§1) The cytotoxicities of Regentide-012 and Regentide-013 prepared in Example 1 above were evaluated. Specifically, cytotoxicities were measured in HaCaT cells, which are human epidermal keratinocytes, and CCD-986Sk, which is human fibroblasts. Keratinocytes were dispensed at 3×10^3 cells/well and fibroblasts were dispensed at 5×10^3 cells/well in a 96-well plate, and then cultured in cell culture conditions for 24 hours in a medium containing 10% FBS. After culturing, Regentide-012 and Regentide-013 were added to an FBS-free medium in an amount of 5 μM or 10 μM, and these were cultured for 48 hours. Thereafter, 10 μl per well of CCK8 reaction solution (Dojindo Molecular Technologies, Kumamoto, Japan) was treated and reacted for 4 hours, and then absorbance was measured at 450 nm. The average absorbance value for each sample group was obtained, and the cell viability was evaluated by comparing it with the absorbance values of cells that had not been treated with Regentide-012 and Regentide-013 as a control group.

Data set [2] concerns CCD-986Sk. The data set can be described thus: Cytotoxicity evaluation (CCK8 cell viability) in fibroblasts. To be noted: 5 μM or 10 μM, 48 hours, FBS-free medium. As to the method: as §1
For data set [3], the system named is HaCaT cells. The data set can be described thus: Wound recovery effect of epidermal keratinocytes (insert gap migration). To be noted: 1 and 2.5 μM, FBS-free medium, 16 and 40 hours. As to the method: (§2) In order to confirm the wound recovery effects of Regentide-012 and Regentide-013, HaCaT cells, which are epidermal keratinocytes, were attached to a 6-well plate with an adhesive insert (Insert, Ibidi, Wisconsin, USA). The cells were dispensed at 6×10^4 cells/well in each well of the insert, and then cultured in cell culture conditions for 24 hours in a medium containing 2% FBS. Thereafter, the insert was removed and washed once using 1×DPBS. Regentide-012 and Regentide-013 were added to the medium at various concentrations (0, 1, and 2.5 μM) in an FBS-free medium, and cell images were photographed at 100 times using a microscope (Nikon Eclipse E100, Tokyo, Japan) after 16 and 40 hours.

The test system of data set [4] is HaCaT cells. The data set can be described thus: Epidermal keratinocyte growth promoting efficacy (cell number). To be noted: 0.5 μM, after 8 days. As to the method:
In order to confirm the cell proliferation abilities of Regentide-012 and Regentide-013, HaCaT cells, which are epidermal keratinocytes, were dispensed at 1×10^4 cells/well in a 6-well plate, and then cultured for 6 hours in a medium containing 10% FBS. Thereafter, Regentide-012 and Regentide-013 were added at various concentrations (0, 0.1, 0.2, or 0.5 μM) and cultured for 8 days. The medium was replaced with a medium containing Regentide-012 and Regentide-013 in various concentrations every day, and the number of cells was measured at intervals of two days.

Data set [5] relates to CCD986Sk cells. The data set can be described thus: Fibroblast growth promoting efficacy (cell number). The settings on record: 0.5 μM, after 8 days. As to the method: In order to confirm the cell proliferation abilities of Regentide-012 and Regentide-013, CCD986Sk cells, which are fibroblasts, were dispensed at 1×10^4 cells/well in a 6-well plate, and then cultured for 6 hours in a medium containing 10% FBS. Thereafter, Regentide-012 and Regentide-013 were added at various concentrations (0, 0.1, 0.2, or 0.5 μM) and cultured for 8 days. The medium was replaced with a medium containing Regentide-012 and Regentide-013 in various concentrations every day, and the number of cells was measured at intervals of two days.

Data set [6] has as its system CCD-986Sk. The data set can be described thus: Wound recovery effect of fibroblasts (insert gap migration). The settings on record: 1 and 2.5 μM, FBS-free medium, 16 and 40 hours. As to the method: as §2, with “CCD-986sk, which is dermal” for “HaCaT”, “was” for “which are epidermal keratinocytes, were”, “[…] was” for “Regentide-012 and Regentide-013 were”, “measured” for “photographed”

For `CC[C@H](C)[C@H](NC(=O)[C@H](CCC(N)=O)NC(=O)[C@H](CCC(=O)O)NC(=O)[C@@H](N)CCCCN)C(=O)NCC(=O)N[C@@H](CCCCN)C(=O)N[C@H]1CSSC[C@@H](C(=O)N[C@@H](CCCNC(=N)N)C(=O)N[C@@H](CCCNC(=N)N)C(=O)N[C@@H](CCCCN)C(=O)N[C@@H](CCCCN)C(=O)O)NC(=O)[C@H](Cc2c[nH]c3ccccc23)NC(=O)[C@H](CCCCN)NC(=O)[C@H](CCCNC(=N)N)NC(=O)CNC(=O)[C@H](CCCNC(=N)N)NC(=O)[C@H]([C@@H](C)O)NC(=O)[C@H](CO)NC1=O` [Regentide-012, KEQIGKCSTRGRKWCRRKK] (H-KEQIGKCSTRGRKWCRRKK-OH; disulfide 7-15), in data set [1], the “cytotoxicity to epidermal keratinocytes” value is “not toxic”. Moreover, the cytotoxicity to fibroblasts entry in data set [2] is on record as “not toxic”.
Turning to `CC[C@H](C)[C@H](NC(=O)[C@H](CCC(N)=O)NC(=O)[C@H](CCC(=O)O)NC(=O)[C@H](CCCCN)NC(C)=O)C(=O)NCC(=O)N[C@@H](CCCCN)C(=O)N[C@H]1CSSC[C@@H](C(=O)N[C@@H](CCCNC(=N)N)C(=O)N[C@@H](CCCNC(=N)N)C(=O)N[C@@H](CCCCN)C(=O)N[C@@H](CCCCN)C(N)=O)NC(=O)[C@H](Cc2c[nH]c3ccccc23)NC(=O)[C@H](CCCCN)NC(=O)[C@H](CCCNC(=N)N)NC(=O)CNC(=O)[C@H](CCCNC(=N)N)NC(=O)[C@H]([C@@H](C)O)NC(=O)[C@H](CO)NC1=O` [Regentide-013, Ac-KEQIGKCSTRGRKWCRRKK-NH2] (Ac-KEQIGKCSTRGRKWCRRKK-NH2; disulfide 7-15), in data set [3], the “cell numbers and cell migration abilities of epidermal keratinocytes” value is “increased the cell numbers and cell migration abilities”. Moreover, the “cell growth rate higher than the control group” value in data set [4] is recorded as 60.8%; in data set [5], 43.9%. Besides, the “cytotoxicity to epidermal keratinocytes” value in data set [1] is recorded as “not toxic”. Moreover, the “cell numbers and cell migration abilities of fibroblasts” value in data set [6] is “increased the cell numbers and cell migration abilities”. The cytotoxicity to fibroblasts result in data set [2] is reported as “not toxic”.
